Assay results as given in patent US20260125357A1, “LACTATE ENHANCING COMPOUNDS AND USES THEREOF” (GLIAPHARM SA, priority 2022, published 2026).

What was measured:
primary astrocytes [1] = test: Extracellular medium acidification (SNARF5) assay in astrocytes; type: cell-based; settings: Mus musculus, Astrocyte; astrocytes in vitro; compounds 10 nM to 30 μM; read-out: Activity (EC50 class, extracellular medium acidification SNARF5)
Description: To assess for the effect of the compounds of the invention, those were tested in primary mouse astrocytes and astrocytes differentiated from human-derived induced pluripotent stem cells (iPSCs). Secretion of lactate was measured indirectly through the acidification of extracellular medium using extracellular pH sensor SNARE-5F-(AND-6)-CAR (SNARF5) as described below.
(§1) Primary cultures of cerebrocortical astrocytes were obtained from 1 to 2-day-old OF1 mouse pups (Charles River Laboratories). Briefly, cortices were isolated and minced in small pieces under a dissecting microscope. The cells were incubated for 30 min at 37° C. in a solution containing 20 U/ml papain, 1 mM L-cysteine and 10 kU/ml DNase I. After dissociation, papain activity was stopped by the addition of fetal calf serum (FCS). Single-cell suspension was then obtained by mechanical dissociation, which consisted in cells trituration in a DMEM D7777 medium supplemented with 44 mm NaHCO3, 10 ml/L antibiotic/antimycotic solution and 10% FCS. The cells were seeded at an average density of ˜10′000 cells/cm^2 on poly-D-lysine coated 96- or 12-well culture plates, depending on their use, and grown in DMEM D7777 medium supplemented with 44 mm NaHCO3, 10 ml/L antibiotic/antimycotic solution and 10% FCS at 37° C. in a humidified atmosphere containing 5% CO2/95% air. Culture medium was renewed twice a week. Cells were stimulated and harvested between DIV14 and DIV17, when confluence and cell growth were optimal.
Secretion of lactate was measured indirectly through the acidification of extracellular medium using extracellular pH sensor SNARF-5F-(AND-6)-CAR (SNARF5). After washing cells twice with stimulation medium (DMEM (D5030, Sigma), 1 mM […], and 5 mM Glucose, pH 7.4) at 37° C., cells were stimulated with compounds at a final concentration ranging from 10 nM to 30 μM in 50 μl per well of stimulation medium supplemented with 10 μM of SNARF5 (Life Technologies Corporation). Each compound was tested in two different plates for duplicates. After 30, 60 and 90 min stimulation, fluorescence was read at exc. (excitation) 480 nm/emm. (emission) 580 nm and at exc 480 nm/emm. 630 nm. The ratio of fluorescence between 630 nm and 580 emission values, which is proportional to extracellular pH, was calculated. In each plate, 8 wells were used for negative controls (DMSO 0.1%) and 8 wells were used for positive controls (CCCP 2 μM in DMSO). Results are shown as % of positive control effect (0% and 100% being activities of the Veh and positive control, respectively).

primary astrocytes [2] = test: MTT mitochondrial activity assay in primary astrocytes; type: cell-based, mouse; settings: different concentrations, after 1.5 h or 24 h
Description: as §1
To monitor mitochondrial activity in astrocytes, which is linked to the metabolic process of glycolysis and production of lactate, astrocytes in 96-well plates were stimulated for 24 h (37° C. 5% CO2/95% air) with the compounds of the invention ranging from 10 nM to 10 μM.
After stimulation, 5 mg/ml thiazol blue tetrazolium bromide (MTT) in D5030 medium complemented with 5 mM D-glucose and 44 mM sodium bicarbonate (pH 7.2) was added to each well, and cells were incubated for 4 h at 37° C. (5% CO2). The medium was then removed and the amount of reduced MTT, i.e formazan, solubilized in DMSO (50 μl/well) was determined using a spectrophotometer (absorbance of 570 nm).
The mitochondrial activity was monitored in MTT colorimetric assay in primary astrocytes treated with Compounds (1), (2), (3), (4) (5), (9) and (10) at different concentrations after 1.5 h (FIG. 2 A, B, D, E, F, C, H, respectively) or 24 h (FIG. 2 H, I, K, L, M, J, N, respectively).

[3] = tested on: neurons in astrocyte-neuron co-culture; test: MTT mitochondrial activity in neurons from astrocyte-neuron co-cultures; type: cell-based, mouse; settings: 10 μM, 2 hours
Description: Primary mouse neuronal cultures were obtained from 18-day OF1 mouse embryos (Charles River Laboratories). Briefly, cortices were isolated and minced in small pieces under a dissecting microscope. The cells were incubated for 30 min at 37° C. in a solution containing 20 U/ml papain, 1 mM L-cysteine and 10 kU/ml DNase I. After dissociation, papain activity was stopped by the addition of fetal calf serum (FCS). Single-cell suspension was then obtained by mechanical dissociation, which consisted in cells trituration in a Neurobasal+B-27+Glutamax medium. The cells were seeded at an average density of ˜1.5×10^5 cells/cm^2 on poly-D-lysine coated 12-well culture plates and grown in Neurobasal medium supplemented with B-27 and Glutamax at 37° C. in a humidified atmosphere containing 5% CO2/95% air. Neurons were used at DIV10. […]
Neuron pure culture or astrocyte-neuron co-cultures were treated for 2 hours with compound (2) at 10 μM in a solution composed of Neurobasal complemented with B-27 and Glutamax, as well as 0.25 mg/ml thiazol blue tetrazolium bromide (MTT). […] After stimulation, empty coverslips (neuron pure cultures) or astrocytes on coverslips (astrocyte-neuron co-cultures) were separated from neurons, medium was removed and the amount of reduced MTT, i.e formazan, solubilized in DMSO (50 μl/well) was determined using a spectrophotometer (absorbance of 570 nm).

GLUT1-DS transgenic mice = test: Rotarod motor function in GLUT1-DS transgenic mice; type: in vivo, mouse; settings: single administration 10 mg/kg, 20 min before rotarod
Source text: Heterozygous transgenic mice on 129/SvJ genetic background in which glucose transporter 1 (GLUT1) has been knocked down were used (GLUT1(+/−)) (Wang et al., 2016, Human Molecular Genetics, 15(7)). GLUT1-deficiency syndrome (GLUT1-DS) is a prototypic hypometabolic diseases caused by the mutation of GLUT1 and decreased levels of glucose and lactate in the brain (Tang et al., 2019, Annals of Clinical and Translational Neurology 6(9)). Mating colonies were composed of wild-type female mice and GLUT1-DS male mice, or GLUT1-DS female mice and wild-type male mice. F1 pups were genotyped after ear punching at weaning using PCR to determine genotype. Mice of 2 to 3 months of age were used.
Motor function was measured in wild-type (WT) and GLUT 1-DS transgenic mice in the rotarod after single administration of Veh. or compound (1) or (2) (10 mg/kg) 20 min before rotarod. Rotarod testing consisted in placing the mouse on an accelerating rotating rod (4 to 40 r.p.m.) during a maximum of 300 seconds. 3 consecutive sessions with 15 min apart were performed. Latency for the mouse to fall from the rod was recorded and the maximal latency over the 3 trials was used as a measure of motor function.

EC50 (primary astrocytes [1]): < 1000 nM
SMILES: COc1cc2ccnc(Nc3ccc(S(C)(=O)=O)cc3)c2cc1OC [Compound 2, 6,7-dimethoxy-N-(4-methylsulfonylphenyl)isoquinolin-1-amine]
mitochondrial activity (MTT colorimetric assay) (primary astrocytes [2]): none of the selected compounds had direct effect on mitochondrial activity
mitochondrial activity of neurons (MTT) [3]: enhances mitochondrial activity of neurons in astrocyte-neuron co-culture
rotarod performance (latency to fall) (GLUT1-DS transgenic mice): increased rotarod performance
